Laboratory results: ChEMBL document CHEMBL1139600, “Synthesis, in vivo and in vitro biological activity of novel azaline B analogs” (Bioorg Med Chem Lett, 2005)
*1 amine or outer side, *2 acyl side, *3 side chain or, on linkers, in order; H or OH if unused. Where a SMILES comes first, the peptide text is derived from it. [ ]: non-standard residue; d: D form. Phe(4-NH(5-NH2triazol-3-yl)) = Nc1nc(Nc2ccc(C[C@H](N)C(=O)O)cc2)n[nH]1; X1 = Nc1nc(Nc2ccc(C[C@@H](N[*:1])C(=O)[*:2])cc2)n[nH]1; dPhe(4-Cl) = N[C@H](Cc1ccc(Cl)cc1)C(=O)O; d2Nal = N[C@H](Cc1ccc2ccccc2c1)C(=O)O; Lys(iPr) = CC(C)NCCCC[C@H](N)C(=O)O; d3Pal = N[C@H](Cc1cccnc1)C(=O)O

Legend:
[1] = target: T1, Gonadotropin-releasing hormone receptor (Homo sapiens, UniProt P30968); experiment: (§1) In vitro inhibition of human gonadotropin-releasing hormone expressed in HEK293 cells; assay type: cell-based
T1 sequence (P30968 whole entry): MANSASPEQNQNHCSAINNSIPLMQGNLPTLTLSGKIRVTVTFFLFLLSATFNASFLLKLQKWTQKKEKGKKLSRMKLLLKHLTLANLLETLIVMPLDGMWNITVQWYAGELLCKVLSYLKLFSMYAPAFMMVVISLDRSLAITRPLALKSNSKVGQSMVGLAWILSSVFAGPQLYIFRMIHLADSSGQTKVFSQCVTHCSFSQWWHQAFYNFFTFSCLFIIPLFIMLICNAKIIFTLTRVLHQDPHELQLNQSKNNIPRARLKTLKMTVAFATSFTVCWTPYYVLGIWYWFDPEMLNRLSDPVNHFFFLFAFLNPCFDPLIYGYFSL

[2] = target: T1, Gonadotropin-releasing hormone receptor; experiment: as §1; assay type: cell-based; remark: listed apart in the source

SMILES	IC50 [1]	IC50 [2]
CC(C)C[C@H](NC(=O)[C@@H](Cc1ccc(NC(N)=O)cc1)NC(=O)[C@H](Cc1ccc(NC(=O)C(N)CN)cc1)NC(=O)[C@H](CO)NC(=O)[C@@H](Cc1cccnc1)NC(=O)[C@@H](Cc1ccc(Cl)cc1)NC(=O)[C@H](N)Cc1ccc2ccccc2c1)C(=O)N[C@@H](CCCCNC(C)C)C(=O)N1CCC[C@H]1C(=O)N[C@H](C)C(=O)O (some centres undefined)	3.16 nM	2.82 nM
CC(=O)N[C@H](Cc1ccc2ccccc2c1)C(=O)N[C@H](Cc1ccc(Cl)cc1)C(=O)N[C@H](Cc1cccnc1)C(=O)N[C@@H](CO)C(=O)N[C@@H](Cc1ccc(NC(=O)[C@@H]2CCC(=O)N2)cc1)C(=O)N[C@H](Cc1ccc(NC(N)=O)cc1)C(=O)N[C@@H](CC(C)C)C(=O)N[C@@H](CCCCNC(C)C)C(=O)N1CCC[C@H]1C(=O)N[C@H](C)C(=O)O	2 nM	1.85 nM
CC(=O)N[C@H](Cc1ccc2ccccc2c1)C(=O)N[C@H](Cc1ccc(Cl)cc1)C(=O)N[C@H](Cc1cccnc1)C(=O)N[C@@H](CO)C(=O)N[C@@H](Cc1ccc(NCC(=O)n2cc(C)c(=O)[nH]c2=O)cc1)C(=O)N[C@H](Cc1ccc(NC(N)=O)cc1)C(=O)N[C@@H](CC(C)C)C(=O)N[C@@H](CCCCNC(C)C)C(=O)N1CCC[C@H]1C(=O)N[C@H](C)C(N)=O	2.51 nM	2.46 nM
CC(=O)N[C@H](Cc1ccc2ccccc2c1)C(=O)N[C@H](Cc1ccc(Cl)cc1)C(=O)N[C@H](Cc1cccnc1)C(=O)N[C@@H](CO)C(=O)N[C@@H](Cc1ccc(NC(=O)NC(=O)[C@H](N)CC(N)=O)cc1)C(=O)N[C@H](Cc1ccc(NC(N)=O)cc1)C(=O)N[C@@H](CC(C)C)C(=O)N[C@@H](CCCCNC(C)C)C(=O)N1CCC[C@H]1C(=O)N[C@H](C)C(=O)O	2 nM	2.22 nM
CC(=O)N[C@H](Cc1ccc2ccccc2c1)C(=O)N[C@H](Cc1ccc(Cl)cc1)C(=O)N[C@H](Cc1cccnc1)C(=O)N[C@@H](CO)C(=O)N[C@@H](Cc1ccc(NC(=O)C(N)CCN)cc1)C(=O)N[C@H](Cc1ccc(NC(N)=O)cc1)C(=O)N[C@@H](CC(C)C)C(=O)N[C@@H](CCCCNC(C)C)C(=O)N1CCC[C@H]1C(=O)N[C@H](C)C(=O)O (some centres undefined)	3.16 nM	3.53 nM
CC(=O)N[C@H](Cc1ccc2ccccc2c1)C(=O)N[C@H](Cc1ccc(Cl)cc1)C(=O)N[C@H](Cc1cccnc1)C(=O)N[C@@H](CO)C(=O)N[C@@H](Cc1ccc(NC(=O)NC(=O)[C@H](N)CCC(N)=O)cc1)C(=O)N[C@H](Cc1ccc(NC(N)=O)cc1)C(=O)N[C@@H](CC(C)C)C(=O)N[C@@H](CCCCNC(C)C)C(=O)N1CCC[C@H]1C(=O)N[C@H](C)C(=O)O	6.31 nM	6.86 nM
CC(=O)N[C@H](Cc1ccc2ccccc2c1)C(=O)N[C@H](Cc1ccc(Cl)cc1)C(=O)N[C@H](Cc1cccnc1)C(=O)N[C@@H](CO)C(=O)N[C@@H](Cc1ccc(NC(=O)C2CCNC(=O)N2)cc1)C(=O)N[C@H](Cc1ccc(NC(N)=O)cc1)C(=O)N[C@@H](CC(C)C)C(=O)N[C@@H](CCCCNC(C)C)C(=O)N1CCC[C@H]1C(=O)N[C@H](C)C(N)=O (some centres undefined)	2 nM	1.78 nM
CC(=O)N[C@H](Cc1ccc2ccccc2c1)C(=O)N[C@H](Cc1ccc(Cl)cc1)C(=O)N[C@H](Cc1cccnc1)C(=O)N[C@@H](CO)C(=O)N[C@@H](Cc1ccc(NC(=O)C(N)CN)cc1)C(=O)N[C@H](Cc1ccc(NC(N)=O)cc1)C(=O)N[C@@H](CC(C)C)C(=O)N[C@@H](CCCCNC(C)C)C(=O)N1CCC[C@H]1C(=O)N[C@H](C)C(=O)O (some centres undefined)	6.31 nM	6.37 nM
CC(=O)N[C@H](Cc1ccc2ccccc2c1)C(=O)N[C@H](Cc1ccc(Cl)cc1)C(=O)N[C@H](Cc1cccnc1)C(=O)N[C@@H](CO)C(=O)N[C@@H](Cc1ccc(NC(=O)NC(=O)[C@@H](N)CC(N)=O)cc1)C(=O)N[C@H](Cc1ccc(NC(N)=O)cc1)C(=O)N[C@@H](CC(C)C)C(=O)N[C@@H](CCCCNC(C)C)C(=O)N1CCC[C@H]1C(=O)N[C@H](C)C(=O)O	2.51 nM	2.37 nM
CC(=O)N[C@H](Cc1ccc2ccccc2c1)C(=O)N[C@H](Cc1ccc(Cl)cc1)C(=O)N[C@H](Cc1cccnc1)C(=O)N[C@@H](CO)C(=O)N[C@@H](Cc1ccc(Nc2n[nH]c(N)n2)cc1)C(=O)N[C@H](Cc1ccc(Nc2n[nH]c(N)n2)cc1)C(=O)N[C@@H](CC(C)C)C(=O)N[C@@H](CCCCNC(C)C)C(=O)N1CCC[C@H]1C(=O)N[C@H](C)C(N)=O (Ac-[d2Nal][dPhe(4-Cl)][d3Pal]S[Phe(4-NH(5-NH2triazol-3-yl))][X1]L[Lys(iPr)]P[dA]-NH2)	1.26 nM	
